Test results as given in ChEMBL document CHEMBL1201862, “PubChem BioAssay data set” (2004).
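Briefly, cells in 96-well plates were exposed to five compound concentrations for 48 h, and endpoints were estimated by linear interpolation. GI50 marks 50% less growth.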 Active and inactive are the calls of the source. Cut-off read from the data, not from the text of the source: active = GI50 up to about 1.1 µM and inactive = higher.

Experiments:
Assay in all cases: inhibition of tumour cell growth, NCI panel, 48 h
786-0 = tested on: 786-0
A498 = tested on: A498
A549 = tested on: A549
ACHN = tested on: ACHN
BT-549 = tested on: BT-549
CAKI-1 = tested on: CAKI-1
CCRF-CEM = tested on: CCRF-CEM
DU-145 = tested on: DU-145
EKVX = tested on: EKVX
HCC 2998 = tested on: HCC 2998
HCT-116 = tested on: HCT-116
HCT-15 = tested on: HCT-15
HL-60 = tested on: HL-60
HOP-62 = tested on: HOP-62
HOP-92 = tested on: HOP-92
HT-29 = tested on: HT-29
Hs-578T = tested on: Hs-578T
IGROV-1 = tested on: IGROV-1
K562 = tested on: K562
KM12 = tested on: KM12
LOX IMVI = tested on: LOX IMVI
M14 = tested on: M14
MCF7 = tested on: MCF7
MDA-MB-231 = tested on: MDA-MB-231
MDA-MB-435 = tested on: MDA-MB-435
MOLT-4 = tested on: MOLT-4
Malme-3M = tested on: Malme-3M
NCI-H226 = tested on: NCI-H226
NCI-H23 = tested on: NCI-H23
NCI-H460 = tested on: NCI-H460
NCI-H522 = tested on: NCI-H522
NCI/ADR-RES = tested on: NCI/ADR-RES
OVCAR-3 = tested on: OVCAR-3
OVCAR-4 = tested on: OVCAR-4
OVCAR-5 = tested on: OVCAR-5
OVCAR-8 = tested on: OVCAR-8
PC-3 = tested on: PC-3
RPMI-8226 = tested on: RPMI-8226
RXF 393 = tested on: RXF 393
SF-268 = tested on: SF-268
SF-295 = tested on: SF-295
SF-539 = tested on: SF-539
SK-MEL-28 = tested on: SK-MEL-28
SK-MEL-2 = tested on: SK-MEL-2
SK-MEL-5 = tested on: SK-MEL-5
SK-OV-3 = tested on: SK-OV-3
SN12C = tested on: SN12C
SNB-19 = tested on: SNB-19
SNB-75 = tested on: SNB-75
SW-620 = tested on: SW-620
T47D = tested on: T47D
TK-10 = tested on: TK-10
U-251 = tested on: U-251
UACC-257 = tested on: UACC-257
UACC-62 = tested on: UACC-62
UO-31 = tested on: UO-31

SMILES: O=C(CSCC(=O)N/N=C/c1ccc2c(c1)OCO2)N/N=C/c1ccc2c(c1)OCO2
- GI50 (786-0): > 100 µM (inactive)
- GI50 (A498): > 100 µM (inactive)
- GI50 (A549): 91.4 µM (inactive)
- GI50 (ACHN): > 100 µM (inactive)
- GI50 (BT-549): > 100 µM (inactive)
- GI50 (CAKI-1): > 100 µM (inactive)
- GI50 (CCRF-CEM): 82.2 µM (inactive)
- GI50 (DU-145): > 100 µM (inactive)
- GI50 (EKVX): 55.8 µM (inactive)
- GI50 (HCC 2998): > 100 µM (inactive)
- GI50 (HCT-116): 85.7 µM (inactive)
- GI50 (HCT-15): > 100 µM
- GI50 (HL-60): 58.9 µM (inactive)
- GI50 (HOP-62): > 100 µM (inactive)
- GI50 (HOP-92): > 100 µM (inactive)
- GI50 (HT-29): > 100 µM (inactive)
- GI50 (Hs-578T): > 100 µM (inactive)
- GI50 (IGROV-1): > 100 µM (inactive)
- GI50 (K562): 38.3 µM (inactive)
- GI50 (KM12): > 100 µM (inactive)
- GI50 (LOX IMVI): > 100 µM (inactive)
- GI50 (M14): 58.9 µM (inactive)
- GI50 (MCF7): 63 µM (inactive)
- GI50 (MDA-MB-231): > 100 µM (inactive)
- GI50 (MDA-MB-435): 38.3 µM (inactive)
- GI50 (MOLT-4): 21.5 µM (inactive)
- GI50 (Malme-3M): 49.2 µM (inactive)
- GI50 (NCI-H226): 40.2 µM (inactive)
- GI50 (NCI-H23): 27 µM (inactive)
- GI50 (NCI-H460): > 100 µM (inactive)
- GI50 (NCI-H522): 64.1 µM (inactive)
- GI50 (NCI/ADR-RES): > 100 µM (inactive)
- GI50 (OVCAR-3): > 100 µM (inactive)
- GI50 (OVCAR-4): > 100 µM (inactive)
- GI50 (OVCAR-5): > 100 µM (inactive)
- GI50 (OVCAR-8): 49 µM (inactive)
- GI50 (PC-3): 40.6 µM (inactive)
- GI50 (RPMI-8226): 49.3 µM (inactive)
- GI50 (RXF 393): > 100 µM (inactive)
- GI50 (SF-268): > 100 µM (inactive)
- GI50 (SF-295): 44.6 µM (inactive)
- GI50 (SF-539): > 100 µM (inactive)
- GI50 (SK-MEL-28): > 100 µM (inactive)
- GI50 (SK-MEL-2): > 100 µM (inactive)
- GI50 (SK-MEL-5): 24.2 µM (inactive)
- GI50 (SK-OV-3): > 100 µM (inactive)
- GI50 (SN12C): > 100 µM (inactive)
- GI50 (SNB-19): > 100 µM (inactive)
- GI50 (SNB-75): > 100 µM (inactive)
- GI50 (SW-620): > 100 µM (inactive)
- GI50 (T47D): 55.5 µM (inactive)
- GI50 (TK-10): > 100 µM (inactive)
- GI50 (U-251): > 100 µM (inactive)
- GI50 (UACC-257): 30.3 µM (inactive)
- GI50 (UACC-62): 52.6 µM (inactive)
- GI50 (UO-31): > 100 µM (inactive)
